Measurements taken from US20070155779A1, “BICYCLIC HETEROARYL COMPOUNDS AS PDE10 INHIBITORS” (Pfizer Inc, priority 2006, published 2007).

target: PDE10 (Homo sapiens, UniProt Q9Y233); test: PDE10 inhibition, Scintillation Proximity Assay (SPA); format: biochemical; details: substrate at 1/3 Km, IC50 approximates Ki
Procedure: Assay methods are available to screen a substance for inhibition of cyclic nuticleotide hydrolysis by the PDE10 and the PDEs from other gene families. The cyclic nucleotide substrate concentration used in the assay is ⅓ of the Km concentration, allowing for comparisons of IC50 values across the different enzymes. PDE activity is measured using a Scintillation Proximity Assay (SPA)-based method as previously described (Fawcett et al., 2000), The effect of PDE inhibitors is determined by assaying a fixed amount of enzyme (PDEs 1-11) in the presence of varying substance concentrations and low substrate, such that the IC50 approximates the Ki (cGMP or cAMP in a 3:1 ratio unlabelled to [^3H]-labeled at a concentration of ⅓ Km).). The final assay volume is made up to 100 μl with assay buffer [20 mM Tris-HCl pH 7.4, 5 mM MgCl2, 1 mg/ml bovine serum albumin]. Reactions are initiated with enzyme, incubated for 30-60 min at 30° C. to give <30% substrate turnover and terminated with 50 μl yttrium silicate SPA beads (Amersham) (containing 3 mM of the respective unlabelled cyclic nucleotide for PDEs 9 and 11). Plates are re-sealed and shaken for 20 min, after which the beads were allowed to settle for 30 minutes in the dark and then counted on a TopCount plate reader (Packard, Meriden, Conn.).

Chain of PDE10 (Q9Y233 whole entry): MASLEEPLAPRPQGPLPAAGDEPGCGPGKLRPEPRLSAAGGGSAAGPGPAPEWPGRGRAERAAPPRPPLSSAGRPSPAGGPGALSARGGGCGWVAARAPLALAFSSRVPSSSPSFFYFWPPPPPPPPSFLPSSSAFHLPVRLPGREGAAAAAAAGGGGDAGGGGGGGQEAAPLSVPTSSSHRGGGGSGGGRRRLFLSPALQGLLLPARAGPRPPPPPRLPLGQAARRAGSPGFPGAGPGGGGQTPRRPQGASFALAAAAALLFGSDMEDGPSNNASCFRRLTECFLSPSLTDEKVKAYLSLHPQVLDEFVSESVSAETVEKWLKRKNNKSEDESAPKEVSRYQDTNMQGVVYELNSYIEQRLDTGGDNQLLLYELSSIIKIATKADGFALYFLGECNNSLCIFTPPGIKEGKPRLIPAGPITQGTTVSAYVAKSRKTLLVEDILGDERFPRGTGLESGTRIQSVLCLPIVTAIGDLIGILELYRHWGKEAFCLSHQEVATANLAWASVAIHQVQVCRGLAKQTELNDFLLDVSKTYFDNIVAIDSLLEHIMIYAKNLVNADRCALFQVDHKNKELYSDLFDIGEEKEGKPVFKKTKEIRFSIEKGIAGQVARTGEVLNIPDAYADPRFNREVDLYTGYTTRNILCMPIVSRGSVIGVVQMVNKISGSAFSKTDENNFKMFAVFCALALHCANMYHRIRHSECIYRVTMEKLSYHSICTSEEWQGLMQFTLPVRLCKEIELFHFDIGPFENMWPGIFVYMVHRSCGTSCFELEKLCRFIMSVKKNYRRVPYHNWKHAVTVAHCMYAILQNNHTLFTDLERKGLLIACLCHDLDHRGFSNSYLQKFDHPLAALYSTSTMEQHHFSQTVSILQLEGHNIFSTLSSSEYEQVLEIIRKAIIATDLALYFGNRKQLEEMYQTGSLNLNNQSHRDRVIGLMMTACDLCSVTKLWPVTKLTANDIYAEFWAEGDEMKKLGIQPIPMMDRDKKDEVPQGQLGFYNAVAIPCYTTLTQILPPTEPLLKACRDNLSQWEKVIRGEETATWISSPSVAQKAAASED

Point of comparison: Cn1cc(-c2ccncc2)c(-c2ccc(OCc3nc4ccccc4n3CC(F)(F)F)cc2)n1 [Example 25, 2-[4-(1-Methyl-4-pyridin-4-yl-1H-pyrazol-3-yl)-phenoxymethyl]-1-(2,2,2trifluoro-ethyl)-1H-benzoimidazole], IC50 10 nM. Against it:
- Cn1c(COc2ccc(-c3n[nH]cc3-c3ccncc3)cc2)nc2ccccc21 [Example 1, 1-Methyl-2-[4-(4-pyridin-4-yl-1H-pyrazol-3-yl)-phenoxymethyl]-1H-benzoimidazole] — 7.9-fold higher, 79 nM
- CCn1cc(-c2ccncc2)c(-c2ccc(OCc3nc4ccccc4n3C)cc2)n1 [Example 2, 2-[4-(1-Ethyl-4-pyridin-4-yl-1-H-pyrazol-3-yl)-phenoxylmethyl]-1-methyl-1-1H-benzoimidazole] — 7.2-fold lower, 1.38 nM
- C[C@@H](O)Cn1cc(-c2ccncc2)c(-c2ccc(OCc3nc4ccccc4n3C)cc2)n1 [Example 3, 1-{3-[4(1-Methyl-1H-benzoimidazol-2-ylmethoxy)-phenyl]-4-pyridin-4-yl-pyrazol-1-yl)-propan-2-ol] — 3.8-fold lower, 2.6 nM
- Cn1c(COc2ccc(-c3oncc3-c3ccncc3)cc2)nc2ccccc21 [Example 4, 1-Methyl-2-[4-(4-pyridin-4-yl-isoxazol-5-yl)-phenoxymethyl]-1-H-benzoimidazole] — 2-fold lower, 4.94 nM
- Cn1cc(-c2ccncc2)c(-c2ccc(OCc3nc4ccccc4n3C)cc2)n1 [Example 5, 1-Methyl-2-[4-(1-methyl-4-pyridin-4-yl-1H-pyrazol-3-yl)-phenoxymethyl]-1-H-benzoimidazole] — 18-fold lower, 0.56 nM
- Cn1ncc(-c2ccncc2)c1-c1ccc(OCc2nc3ccccc3n2C)cc1 [Example 6, 1-Methyl-2-[4-(2 methyl-4-pyridin-4-yl-2H-pryazol-3-yl)-phenoxymethyl]-1H-benzoimidazole] — 5.4-fold lower, 1.84 nM
- Cn1cc(-c2ccncc2)c(-c2ccc(OCc3nc4ccccc4n3CF)cc2)n1 [Example 7, 1-Fluoromethyl-2-[4-(1-methyl-4-pyridin-4-yl-1H-pyrazol-3-yl)-phenoxymethyl]-1H-benzoimidazole] — 10-fold lower, 0.98 nM
- CC(C)n1c(COc2ccc(-c3nn(C)cc3-c3ccncc3)cc2)nc2ccccc21 [Example 8, 1-Isopropyl-2-[4-(1-methyl-4-pyridin-4-yl-1H-pyrazol-3-yl)-phenoxymethyl]-1H-benzoimidazole] — within 1.5-fold, 8.91 nM
- Cn1cc(-c2ccncc2)c(-c2ccc(OCc3nc4ccccc4n3C3CC3)cc2)n1 [Example 9, 1-Cyclopropyl-2-[4-(1-methyl-4-pyridin-4-yl-1H-pyrazol-3-yl)-phenoxymethyl]-1-H-benzoimidazole] — 14-fold lower, 0.69 nM
- COCCn1c(COc2ccc(-c3nn(C)cc3-c3ccncc3)cc2)nc2ccccc21 [Example 10, 1-(2-Methoxy-ethyl)-2[4-(1-methyl-4-pyridin-4-yl-1H-pyrazol-3-yl)-phenoxymethyl]-1H-benzoimidazole] — 6.2-fold lower, 1.6 nM
- Cn1cc(-c2ccncc2)c(-c2ccc(OCc3cn4ccccc4n3)cc2)n1 [Example 11, 2-[4-(1-Methyl-4-pyridin-4yl-1H-pyrazol-3-yl)-phenoxymethyl]-imidazo[1,2-a]pyridine] — 19-fold lower, 0.53 nM
- Cn1ncc(-c2ccncc2)c1-c1ccc(OCc2cn3ccccc3n2)cc1 [Example 12] — 19-fold lower, 0.53 nM
- Cn1cc(-c2ccncc2)c(-c2ccc(OCc3nc4ccccn4n3)cc2)n1 [Example 13, 2-[4-(1-Methyl-4-pyridin-4-yl-1H-pyrazol-3-yl)-phenoxymethyl]-[1,2,4]triazolo[1,5-a]-pyridine] — 8.8-fold lower, 1.14 nM
- FC(F)(F)Cn1cc(-c2ccncc2)c(-c2ccc(OCc3nc4ccccn4n3)cc2)n1 [Example 14, 2-{4-[4-Pyridin-4-yl-1-(2,2,2-trifluoro-ethyl)-1-H-pyrazol-3-yl]-phenoxymethyl}-[1,2,4]triazolo[1,5-a]pyridine] — 18-fold lower, 0.56 nM
- FC(F)(F)Cn1cc(-c2ccncc2)c(-c2ccc(OCc3cn4ccccc4n3)cc2)n1 [Example 15] — 26-fold lower, 0.39 nM
- Cn1c(COc2ccc(-c3nn(CC(F)(F)F)cc3-c3ccncc3)cc2)nc2ccccc21 [Example 16, 1-Methyl-2-{4-[4-pyridin-4-yl-1-(2,2,2-trifluoro-ethyl)-1H-pyrazol-3yl]-phenoxymethyl}-1H-benzoimidazole] — 48-fold lower, 0.21 nM
- FCn1c(COc2ccc(-c3nn(CC(F)(F)F)cc3-c3ccncc3)cc2)nc2ccccc21 [Example 17, 1-Fluoromethyl-2-{4-[4-pyridin-4-yl-1-(2.2.2-trifluoro-ethyl)-1-H-pyrazol-3-yl]-phenoxymethyl}-1H-benzoimidazole] — 13-fold lower, 0.75 nM
- Cn1cc(-c2ccncc2)c(-c2ccc(OCc3nc4ncccc4n3C)cc2)n1 [Example 18] — within 1.5-fold, 9.31 nM
- Cn1cc(-c2ccncc2)c(-c2ccc(OCc3nc4cnccc4n3C)cc2)n1 [Example 19, 1-Methyl-2-[4-(1-methyl-4-pyridin-4-yl-1H-pyrazol-3-yl)-phenoxymethyl]-1-H-imidazo[4,5-c]pyridine] — 13-fold higher, 133 nM
- Cn1cc(-c2ccncc2)c(-c2ccc(OCc3nc4cc(F)c(F)cc4n3C)cc2)n1 [Example 20, 5,6-Difluoro-1-methyl-2-[4-(1-methyl-4-pyridin-4-yl-1H-pyrazol-3-yl)-phenoxymethyl]-1H-benzoimidazole] — 1.7-fold higher, 16.7 nM
- Cn1cc(-c2ccncc2)c(-c2ccc(OCc3nc4ccccc4s3)cc2)n1 [Example 21, 2-[4-(1-Methyl-4-pyridin-4-yl-1H-pyrazol-3-yl)-phenoxymethyl]-benzothiazole] — 11-fold lower, 0.89 nM
- FC(F)(F)Cn1cc(-c2ccncc2)c(-c2ccc(OCc3nc4ccccc4s3)cc2)n1 [Example 22, 2-{4-[4-Pyridin-4-yl-1-(2,2 2-trifluoro-ethyl)-1H-pyrazol-3-yl]-phenoxymethyl}-benzothiazole] — 6.8-fold lower, 1.48 nM
- Cn1cc(-c2ccncc2)c(-c2ccc(OCc3nc4cccc5c4n3CCC5)cc2)n1 [Example 23, 2-[4-(1-Methyl-4-pyridin-4-yl-1H-pyrazol-3-yl)-phenoxymethyl]-5,6-dihydro-4H-imidazo[4,5,1-ij]quinoline] — 3.2-fold lower, 3.09 nM
- Cc1c(COc2ccc(-c3nn(C)cc3-c3ccncc3)cc2)nc2ccccn12 [Example 24, 3-Methyl-2-[4-(1-methyl-4-pyridin-4-yl-1H-pyrazol-3-yl)-phenoxymethyl]-imidazo[1,2-a]pyridine] — 7.1-fold lower, 1.4 nM
- Cn1c(COc2ccc(-n3nccc3-c3ccncc3)cc2)nc2ccccc21 [Example 26, 1-Methyl-2-[4-(5-pyridin-4-yl-pyrazol-1-yl)-phenoxymethyl]-1H-benzoimidazole] — 3.3-fold lower, 3.05 nM
- Cn1cc(-c2ccncc2)c(-c2ccc(CCc3nc4ccccc4n3C)cc2)n1 [Example 27, 1-Methyl-2{2-[4-(1methyl-4-pyridin-4-yl-1H-pyrazol-3-yl)-phenyl]-ethyl}-1H-benzoimidazole] — 1.6-fold higher, 16.2 nM
- Cn1c(COc2ccc(-c3nncn3-c3ccncc3)cc2)nc2ccccc21 [Example 28, 1-Methyl-2[4-(4-pyridin-4-yl-4H-[1,2,4]triazol-3-yl)-phenoxymethyl]-1H-benzoimidazole] — 4.6-fold higher, 46.3 nM
- Cn1cc(-c2ccncc2)c(-c2ccc(OCc3cn4ccsc4n3)cc2)n1 [Example 32, 6-[4-(1-Methyl-4-pyridin-4-yl-1H-pyrazol-3-yl)-phenoxymethyl]-imidazo[2,1-b]thiazole] — within 1.5-fold, 12 nM
- Cn1c(COc2ccc(-n3ccnc3-c3ccncc3)cc2)nc2ccccc21 [Example 37, 2-((4-(2-(pyridin-4-yl)-1H-imidazol-1-yl)phenoxy)methyl)-1-methyl-1H-benzo[d]imidazole] — 2.9-fold higher, 28.8 nM
- Oc1ccc(-n2ccnc2-c2ccncc2)cc1 [Preparation 37, 4-(2-(pyridin-4-yl)-1H-imidazol-1-yl)phenol] — within 1.5-fold, 8.82 nM
